Each structure is given as a SMILES string.

Consider one compound from US20060148766A1 (priority 2002, published 2006).

This data set relates to living body. The data set is described as follows: Toxicity test. The settings on record: in vivo.

As for `CN(C)c1ccc(O)c2c1C[C@H]1C[C@H]3[C@H](N(C)C)C(O)=C(C(N)=O)C(=O)[C@@]3(O)C(O)=C1C2=O` [minocycline], the “side effects on the living body” value is given as “no particular side effects”.
